Tests used:
Format in all cases: physicochemical
[1] = humidity stress experiment (stability of the amorphous compound in relative humidity chambers, XRD pattern analysed); conditions: 5-7 days
Description: (§1) The following experiments were performed to evaluate the stability of the amorphous compound under various solvent vapours and controlled humidity conditions.
In addition, a humidity stress experiment was performed by placing about 25 mg of the amorphous compound of Example 1 in individual vials, storing the vials in an unsealed state in various relative humidity chambers (23% RH, 59% RH, 7% RH, 98% RH, 40° C./75% RH) for 5-7 days, and analyzing the XRD pattern.
(§2) The vapour stress and humidity stress experimental methods are methods used as methods for generating stable solvates or hydrates because, when a substance is exposed to vapours, a solid is plasticized, and molecular mobility is […]. However, for the amorphous compound of Example 1, the amorphous compound was maintained under various conditions according to the above experimental methods. Thus, it was confirmed that the amorphous compound was stable under the corresponding conditions.

[2] = vapour stress experiment (stability of the amorphous compound under solvent vapours, XRD pattern analysed); conditions: 5-7 days; for Result / XRD: vapour stress
Description: as §1
A vapour stress experiment was performed by placing about 25 mg of the amorphous compound of Example 1 into an unsealed vial, placing the vial in a large sealed container containing 1 mL of the selected solvent, and after 5-7 days, analyzing the XRD pattern of the sample.
as §2

[3] = humidity stress experiment (stability of the amorphous compound in relative humidity chambers, XRD pattern analysed); conditions: 75% RH stress, 5-7 days

## CC(C)C(=O)N([C@H]1C[C@@H](C(=O)N2CCOCC2)N(C(=O)[C@@H]2CN(C(C)(C)C)C[C@H]2c2ccc(Cl)cc2)C1)[C@H]1CC[C@@H](C)CC1 [Example 1, N-((3S,5S)-1-((3S,4R)-1-(tert-butyl)-4-(4-chlorophenyl)pyrrolidine-3-carbonyl)-5-(morpholine-4-carbonyl)pyrrolidin-3-yl)-N-((1s,4R)-4-methylcyclohexyl)isobutyramide]
[1]; 23% RH stress
  Result: Solid
  XRD: Amorphous
[1]; 40° C./75% RH stress
  Result: Solid
  XRD: Amorphous
[1]; 59% RH stress
  Result: Solid
  XRD: Amorphous
[1]; 75% RH stress
  Result: Solid
[1]; 98% RH stress
  Result: Solid
  XRD: Amorphous
[1]; controlled humidity conditions
  stability of the amorphous compound under humidity stress conditions: stable
[2]; 2-Me-THF
  Result: Solid
  XRD: Amorphous
[2]; ACS
  Result: Solid
  XRD: Amorphous
[2]; Acetone
  Result: Solid
  XRD: Amorphous
[2]; Benzyl alcohol
  Result: Solid
  XRD: Amorphous
[2]; Chlorobenzene
  Result: Solid
  XRD: Amorphous
[2]; Chloroform
  Result: Solid
  XRD: Amorphous
[2]; DCM
  Result: Solid
  XRD: Amorphous
[2]; DME
  Result: Solid
  XRD: Amorphous
[2]; DMSO
  Result: Solid
  XRD: Amorphous
[2]; Ethanol
  Result: Solid
  XRD: Amorphous
[2]; Formamide
  Result: Solid
  XRD: Amorphous
[2]; HFIPA
  Result: Solid
  XRD: Amorphous
[2]; Heptane
  Result: Solid
  XRD: Amorphous
[2]; IPA
  Result: Solid
  XRD: Amorphous
[2]; MEK
  Result: Solid
  XRD: Amorphous
[2]; MeOH
  Result: Solid
  XRD: Amorphous
[2]; NMP
  Result: Solid
  XRD: Amorphous
[2]; Nitromethane
  Result: Solid
  XRD: Amorphous
[2]; Pyridine
  Result: Solid
  XRD: Amorphous
[2]; THE
  Result: Solid
  XRD: Amorphous
[2]; Water
  Result: Solid
  XRD: Amorphous
[2]; various solvent vapours
  stability of the amorphous compound under vapour stress conditions: stable
[3]
  XRD: Amorphous

— patent US20240059652A1, “AMORPHOUS MELANOCORTIN RECEPTOR AGONIST AND METHOD FOR PREPARING SAME” (LG CHEM, LTD., priority 2020, published 2024)
